Assay results from ChEMBL document CHEMBL1150954, “Isolation and synthesis of an alpha-malamic acid derivative from Justicia ghiesbreghtiana” (J Nat Prod, 1998).
Active and inactive are the calls of the source. The rule behind the calls is not given here.

Test system: Mycobacterium tuberculosis
Experiment: Antibacterial activity against Mycobacterium tuberculosis
Format: functional, organism-based

COc1ccc(NC(=O)[C@@H](O)CC(=O)O)cc1OC
Activity: inactive
